According to ChEMBL document CHEMBL3045223, “Synthesis, nematicidal and antimicrobial properties of Bis-[4-methoxy-3-[3-(4-fluorophenyl)-6-(4-methylphenyl)-2(aryl)-tetrahydro-2H-pyrazolo[3,4-d]thiazol-5-yl]phenyl]methanes” (2009):
In brackets after ≈: the same amount, converted by molar mass. Activity calls are given as the source filed them. The rule behind the calls is not given here.

How the values were obtained:
Assay type in all cases: functional
[1] = system: Pseudomonas aeruginosa; test: Antibacterial activity against Pseudomonas aeruginosa MTCC 741 assessed as inhibition zones at 300 ug/disk at 37 degC for 24 hr; details: MTCC 741, 24 h, read-out: IZ
[2] = system: Chromobacterium violaceum; test: Antibacterial activity against Chromobacterium violaceum MTCC 2656 assessed as inhibition zones at 300 ug/disk at 37 degC for 24 hr; details: MTCC 2656, 24 h, read-out: IZ
[3] = system: Klebsiella aerogenes; test: Antibacterial activity against Enterobacter aerogenes MTCC 39 assessed as inhibition zones at 300 ug/disk at 37 degC for 24 hr; details: MTCC 39, 24 h, read-out: IZ
[4] = system: Lysinibacillus sphaericus; test: Antibacterial activity against Lysinibacillus sphaericus MTCC 11 assessed as growth arrest at 37 degC for 24 hr; details: MTCC 11, 24 h
[5] = system: Ditylenchus myceliophagus; test: Nematicidal activity against Ditylenchus myceliophagus assessed as immobility; details: read-out: LD50 (the source's name)
[6] = system: Pseudomonas aeruginosa; test: Antibacterial activity against Pseudomonas aeruginosa MTCC 741 assessed as growth arrest at 37 degC for 24 hr; details: MTCC 741, 24 h
[7] = system: Aspergillus fumigatus; test: Antifungal activity against Aspergillus fumigatus HIC 6094 assessed as growth inhibition at 300 ug/disc at 37 degC for 48 hr; details: for zone of inhibition at 300 µg/disc: HIC 6094, 48 h, read-out: IZ
[8] = system: Candida albicans; test: Antifungal activity against Candida albicans ATCC 10231 assessed as growth inhibition at 37 degC for 48 hr; details: ATCC 10231, 48 h
[9] = system: Aspergillus fumigatus; test: Antifungal activity against Aspergillus fumigatus HIC 6094 assessed as growth inhibition at 37 degC for 48 hr
[10] = system: Staphylococcus aureus; test: Antibacterial activity against Staphylococcus aureus MTCC 96 assessed as inhibition zones at 300 ug/disc at 37 degC for 24 hr; details: MTCC 96, 24 h, read-out: IZ
[11] = system: Trichophyton rubrum; test: Antifungal activity against Trichophyton rubrum IFO 9185 assessed as growth inhibition at 37 degC for 48 hr
[12] = system: Klebsiella aerogenes; test: Antibacterial activity against Enterobacter aerogenes MTCC 39 assessed as growth arrest at 37 degC for 24 hr; details: MTCC 39, 24 h
[13] = system: Bacillus subtilis; test: Antibacterial activity against Bacillus subtilis MTCC 441 assessed as inhibition zones at 300 ug/disk at 37 degC for 24 hr; details: MTCC 441, 24 h, read-out: IZ
[14] = system: Caenorhabditis elegans; test: Nematicidal activity against Caenorhabditis elegans assessed as immobility; details: read-out: LD50 (the source's name)
[15] = system: Trichophyton mentagrophytes; test: Antifungal activity against Trichophyton mentagrophytes IFO 40996 assessed as growth inhibition at 300 ug/disc at 37 degC for 48 hr; details: for zone of inhibition at 300 µg/disc: IFO 40996, 48 h, read-out: IZ
[16] = system: Bacillus subtilis; test: Antibacterial activity against Bacillus subtilis MTCC 441 assessed as growth arrest at 37 degC for 24 hr; details: MTCC 441, 24 h
[17] = system: Staphylococcus aureus; test: Antibacterial activity against Staphylococcus aureus MTCC 96 assessed as growth arrest at 37 degC for 24 hr; details: MTCC 96, 24 h
[18] = system: Chromobacterium violaceum; test: Antibacterial activity against Chromobacterium violaceum MTCC 2656 assessed as growth arrest at 37 degC for 24 hr; details: MTCC 2656, 24 h
[19] = system: Lysinibacillus sphaericus; test: Antibacterial activity against Lysinibacillus sphaericus MTCC 11 assessed as inhibition zones at 300 ug/disk at 37 degC for 24 hr; details: MTCC 11, 24 h, read-out: IZ
[20] = system: Trichophyton rubrum; test: Antifungal activity against Trichophyton rubrum IFO 9185 assessed as growth inhibition at 300 ug/disk at 37 degC for 48 hr; details: for zone of inhibition at 300 µg/disc: IFO 9185, 48 h, read-out: IZ
[21] = system: Candida albicans; test: Antifungal activity against Candida albicans ATCC 10231 assessed as growth inhibition at 300 ug/disk at 37 degC for 48 hr; details: for zone of inhibition at 300 µg/disc: ATCC 10231, 48 h, read-out: IZ
[22] = system: Trichophyton mentagrophytes; test: Antifungal activity against Trichophyton mentagrophytes IFO 40996 assessed as growth inhibition at 37 degC for 48 hr

Structure (SMILES)	zone of inhibition at 300 µg/disc [1] [mm]	zone of inhibition at 300 µg/disc [2] [mm]	zone of inhibition at 300 µg/disc [3] [mm]	MBC [4] [µg/mL]	MIC [4] [µg/mL]	LC50 [5] [µg/mL]	MBC [6] [µg/mL]	MIC [6] [µg/mL]	MBC [8] [µg/mL]	MIC [8] [µg/mL]	zone of inhibition at 300 µg/disc [10] [mm]	MBC [12] [µg/mL]	MIC [12] [µg/mL]	zone of inhibition at 300 µg/disc [13] [mm]	LC50 [14] [µg/mL]	MBC [16] [µg/mL]	MIC [16] [µg/mL]	MBC [17] [µg/mL]	MIC [17] [µg/mL]	MBC [18] [µg/mL]	further results
COc1ccc(Cc2ccc(OC)c(C3SC4C(=NN(C(C)C)C4c4ccc(F)cc4)N3c3ccc(C)cc3)c2)cc1C1SC2C(=NN(C(C)C)C2c2ccc(F)cc2)N1c1ccc(C)cc1 (stereo not drawn)	23	16	19	50 (≈ 53.5 µM)	50 (≈ 53.5 µM)	550 (≈ 588 µM)	12.5 (≈ 13.4 µM)	6.25 (≈ 6.68 µM)	25 (≈ 26.7 µM)	12.5 (≈ 13.4 µM)	23	12.5 (≈ 13.4 µM)	12.5 (≈ 13.4 µM)	13	600 (≈ 642 µM)	50 (≈ 53.5 µM)	25 (≈ 26.7 µM)	50 (≈ 53.5 µM)	25 (≈ 26.7 µM)	25 (≈ 26.7 µM)	zone of inhibition at 300 µg/disc [7]: 13 mm; MBC [9]: inactive; MIC [9]: inactive; MBC [11]: inactive; MIC [11]: inactive; inhibition zone (IZ) [15]: inactive; MIC [18]: 25 µg/mL (≈ 26.7 µM); zone of inhibition at 300 µg/disc [19]: 13 mm; inhibition zone (IZ) [20]: inactive; inhibition zone (IZ) [21]: inactive; MBC [22]: inactive; MIC [22]: inactive
COc1ccc(Cc2ccc(OC)c(C3SC4C(=NN(C)C4c4ccc(F)cc4)N3c3ccc(C)cc3)c2)cc1C1SC2C(=NN(C)C2c2ccc(F)cc2)N1c1ccc(C)cc1 (stereo not drawn)	14	18	20	25.5 (≈ 29 µM)	12.5 (≈ 14.2 µM)	160 (≈ 182 µM)	12.5 (≈ 14.2 µM)	12.5 (≈ 14.2 µM)	3.12 (≈ 3.55 µM)	3.12 (≈ 3.55 µM)	25	12.5 (≈ 14.2 µM)	6.25 (≈ 7.11 µM)	13	200 (≈ 228 µM)	50 (≈ 56.9 µM)	6.25 (≈ 7.11 µM)	25 (≈ 28.4 µM)	12.5 (≈ 14.2 µM)	12.5 (≈ 14.2 µM)	zone of inhibition at 300 µg/disc [7]: 20 mm; MBC ([9]; HIC 6094, 48 h): 6.25 µg/mL (≈ 7.11 µM); MIC ([9]; HIC 6094, 48 h): 3.12 µg/mL (≈ 3.55 µM); MBC ([11]; IFO 9185, 48 h): 6.25 µg/mL (≈ 7.11 µM); MIC ([11]; IFO 9185, 48 h): 3.12 µg/mL (≈ 3.55 µM); zone of inhibition at 300 µg/disc [15]: 18 mm; MIC [18]: 6.25 µg/mL (≈ 7.11 µM); zone of inhibition at 300 µg/disc [19]: 13 mm; zone of inhibition at 300 µg/disc [20]: 20 mm; zone of inhibition at 300 µg/disc [21]: 20 mm; MBC ([22]; IFO 40996, 48 h): 12.5 µg/mL (≈ 14.2 µM); MIC ([22]; IFO 40996, 48 h): 6.25 µg/mL (≈ 7.11 µM)
COc1ccc(Cc2ccc(OC)c(C3SC4C(=NN(c5ccccc5)C4c4ccc(F)cc4)N3c3ccc([N+](=O)[O-])cc3)c2)cc1C1SC2C(=NN(c3ccccc3)C2c2ccc(F)cc2)N1c1ccc([N+](=O)[O-])cc1 (stereo not drawn)	11	11	24	12.5 (≈ 11.7 µM)	6.25 (≈ 5.87 µM)	800 (≈ 751 µM)	25 (≈ 23.5 µM)	6.25 (≈ 5.87 µM)	25 (≈ 23.5 µM)	12.5 (≈ 11.7 µM)	20	25 (≈ 23.5 µM)	12.5 (≈ 11.7 µM)	21	620 (≈ 582 µM)	25 (≈ 23.5 µM)	12.5 (≈ 11.7 µM)	25 (≈ 23.5 µM)	6.25 (≈ 5.87 µM)	50 (≈ 46.9 µM)	zone of inhibition at 300 µg/disc [7]: 11 mm; MBC ([9]; HIC 6094, 48 h): 50 µg/mL (≈ 46.9 µM); MIC ([9]; HIC 6094, 48 h): 12.5 µg/mL (≈ 11.7 µM); MBC ([11]; IFO 9185, 48 h): 25 µg/mL (≈ 23.5 µM); MIC ([11]; IFO 9185, 48 h): 6.25 µg/mL (≈ 5.87 µM); zone of inhibition at 300 µg/disc [15]: 9 mm; MIC [18]: 25 µg/mL (≈ 23.5 µM); zone of inhibition at 300 µg/disc [19]: 22 mm; zone of inhibition at 300 µg/disc [20]: 10 mm; zone of inhibition at 300 µg/disc [21]: 8 mm; MBC ([22]; IFO 40996, 48 h): 12.5 µg/mL (≈ 11.7 µM); MIC ([22]; IFO 40996, 48 h): 12.5 µg/mL (≈ 11.7 µM)
COc1ccc(Cc2ccc(OC)c(C3SC4C(=NN(c5ccc(Cl)cc5)C4c4ccc(F)cc4)N3c3ccc([N+](=O)[O-])cc3)c2)cc1C1SC2C(=NN(c3ccc(Cl)cc3)C2c2ccc(F)cc2)N1c1ccc([N+](=O)[O-])cc1 (stereo not drawn)	16	16	20	50 (≈ 44.1 µM)	12.5 (≈ 11 µM)	230 (≈ 203 µM)	50 (≈ 44.1 µM)	50 (≈ 44.1 µM)	25 (≈ 22 µM)	25 (≈ 22 µM)	16	25 (≈ 22 µM)	12.5 (≈ 11 µM)	21	350 (≈ 309 µM)	50 (≈ 44.1 µM)	6.25 (≈ 5.51 µM)	25 (≈ 22 µM)	6.25 (≈ 5.51 µM)	50 (≈ 44.1 µM)	inhibition zone (IZ) [7]: inactive; MBC ([9]; HIC 6094, 48 h): 50 µg/mL (≈ 44.1 µM); MIC ([9]; HIC 6094, 48 h): 25 µg/mL (≈ 22 µM); MBC ([11]; IFO 9185, 48 h): 50 µg/mL (≈ 44.1 µM); MIC ([11]; IFO 9185, 48 h): 25 µg/mL (≈ 22 µM); inhibition zone (IZ) [15]: inactive; MIC [18]: 12.5 µg/mL (≈ 11 µM); zone of inhibition at 300 µg/disc [19]: 16 mm; inhibition zone (IZ) [20]: inactive; zone of inhibition at 300 µg/disc [21]: 15 mm; MBC ([22]; IFO 40996, 48 h): 12.5 µg/mL (≈ 11 µM); MIC ([22]; IFO 40996, 48 h): 6.25 µg/mL (≈ 5.51 µM)
